Measurements: ChEMBL document CHEMBL1151517, “Morpholinoalkylindenes as antinociceptive agents: Novel cannabinoid receptor agonists” (Bioorg Med Chem Lett, 1995)

Tests used:
[1] = tested on: Mus musculus; assay: Concentration required for inhibition of electrically stimulated contraction of mouse vas deferens […]; format: functional
[2] = molecular target: Cannabinoid receptor (Rattus norvegicus, UniProt Q9QZN9+P20272); assay: Displacement of 0.5 nM [3H](R)-(+)-WIN-55212-2 from Cannabinoid receptor of rat cerebellar membranes; format: cell membranes, Membrane
[3] = molecular target: Cannabinoid receptor (Rattus norvegicus) (UniProt Q9QZN9+P20272); assay: Inhibition to displace 50% of 0.5 nM [3H](R)-(+)-WIN-55212-2 binding to Cannabinoid receptor in rat cerebellar membranes at 1 uM concentration; format: cell membranes; conditions: Membrane
Sequence of Cannabinoid receptor (Rattus norvegicus) (P20272 whole entry, looked up): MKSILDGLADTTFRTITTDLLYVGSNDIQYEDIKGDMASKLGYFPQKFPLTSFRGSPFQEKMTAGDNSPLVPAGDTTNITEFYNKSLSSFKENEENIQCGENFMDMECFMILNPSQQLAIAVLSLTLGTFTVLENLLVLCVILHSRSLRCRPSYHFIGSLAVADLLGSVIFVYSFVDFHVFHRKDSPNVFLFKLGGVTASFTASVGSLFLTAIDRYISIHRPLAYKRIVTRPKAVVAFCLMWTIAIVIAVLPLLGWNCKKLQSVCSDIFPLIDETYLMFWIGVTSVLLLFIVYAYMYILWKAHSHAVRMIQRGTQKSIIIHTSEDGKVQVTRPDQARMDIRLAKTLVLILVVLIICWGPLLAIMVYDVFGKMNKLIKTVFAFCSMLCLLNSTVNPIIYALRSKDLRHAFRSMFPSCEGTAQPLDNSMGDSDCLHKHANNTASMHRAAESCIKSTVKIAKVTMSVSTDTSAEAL
Sequence of Cannabinoid receptor (Rattus norvegicus) (Q9QZN9 whole entry, looked up): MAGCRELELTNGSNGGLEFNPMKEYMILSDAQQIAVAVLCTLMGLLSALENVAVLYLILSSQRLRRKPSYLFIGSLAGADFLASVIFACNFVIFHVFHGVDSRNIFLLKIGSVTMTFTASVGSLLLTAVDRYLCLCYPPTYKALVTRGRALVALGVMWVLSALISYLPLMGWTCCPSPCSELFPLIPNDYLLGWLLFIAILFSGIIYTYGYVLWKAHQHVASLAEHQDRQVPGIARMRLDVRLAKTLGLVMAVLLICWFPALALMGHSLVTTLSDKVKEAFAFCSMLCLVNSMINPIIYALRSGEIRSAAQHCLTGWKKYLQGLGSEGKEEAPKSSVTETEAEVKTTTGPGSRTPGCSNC

[4] = tested on: Mus musculus; assay: Effective dose required for inhibition of oral acetylcholine (ACh) writhing activity in mice at 10 mg/Kg dose; format: functional
[5] = species: Mus musculus; assay: Effective dose required for inhibition of oral acetylcholine (ACh) writhing activity in mice; format: functional
[6] = tested on: Mus musculus; assay: Effective dose required for inhibition of oral acetylcholine (ACh) writhing activity in mice at 100 mg/Kg dose; format: functional
[7] = Compound was tested for inhibitory activity against prostaglandin synthetase in mouse brain microsomes

Compound	IC50 [1]	IC50 [2]	further results
COc1ccc(/C=C2\C=C(CCN3CCOCC3)c3ccccc32)cc1	80 nM	58 nM	–
C1=C(CCN2CCOCC2)c2ccccc2/C1=C/c1ccccc1	79 nM	–	inhibition [3]: 33%
COc1ccc(/C=C2\C=C(CCN3CCOCC3)c3ccccc32)c2ccccc12	8 nM	900 nM	–
COc1ccc(/C=C2\C=C(CCN3CCOCC3)c3ccccc32)cc1OC	19 nM	28000 nM	–
C[S+]([O-])c1ccc(/C=C2\C=C(CCN3CCOCC3)c3ccccc32)cc1 (centres undefined)	190 nM	–	–
C1=C(CCN2CCOCC2)c2ccccc2/C1=C/c1cccc2ccccc12	7 nM	1000 nM	inhibition in vivo at 10 mg/kg [4]: 83%
CSc1ccc(/C=C2\C=C(CCN3CCOCC3)c3ccccc32)cc1	–	96000 nM	ED50 [5]: 50 mg/kg
Oc1ccc(/C=C2\C=C(CCN3CCOCC3)c3ccccc32)c2ccccc12	–	97000 nM	–
COc1ccc(C=C2C(C)=C(CCN3CCOCC3)c3ccccc32)cc1	–	45000 nM	inhibition in vivo at 100 mg/kg [6]: 30%
CC1=C(CCN2CCOCC2)c2ccccc2C1=Cc1cccc2ccccc12	45 nM	10000 nM	–
COc1ccc(C(=O)c2c(C)n(CCN3CCOCC3)c3ccccc23)cc1 [PRAVADOLINE]	530 nM	–	IC50 [7]: 3500 nM; ED50 [5]: 41 mg/kg
COc1ccc(C=C2C(C)=C(CCN3CCOCC3)c3ccccc32)c2ccccc12	350 nM	–	inhibition in vivo at 100 mg/kg [6]: 39%
